“Also recorded” adds a separate entry of the source.
What was measured:
oligodendroglial cells = assay: Nuclear integrity assay: counts of intact nuclei (Zap-oglobin lysis) after insulin and IGF-I withdrawal; assay type: cell-based, rat; conditions: for increase in number of intact nuclei compared to BM: BM + 10^−9 M (BM-D9) vs BM; for number of intact nuclei compared to IM: IM + 10^−9 M (IM-D9)
Procedure: In order to examine insulin and IGF-I dependent survival of the cells of the oligodendroglial lineage, cells were trophically deprived for a period of 24 hours at 16 DIV.
Cells were trophically withdrawn by replacing the media with a serum free, chemically-defined base media (BM) lacking insulin and IGF-I (Bottenstein et al., 1988). The base media consisited of DMEM supplemented with penicillin (50 IU/ml); streptomycin (50 μg/ml); 1 mM sodium pyruvate; 50 μg/ml transferrin; 0.005 μg/ml sodium selenite; 16 μg/ml putrescine; 0.006 μg/ml progesterone and 0.1 mg/ml bovine serum albumin. All the cells were washed with BM twice before exposing them to individual treatment conditions. Control cells were washed and placed in BM supplemented with 2.5 ng/ml IGF-I and 5 μg/ml insulin to form the insulin media (IM).
Cell survival in the cultures was assessed according to the method of (Soto and Sonnenschein, 1985). After washing and treatment in BM, BM-D9, IM and IM-D9 for 24 h, cells were harvested, centrifuged at 500 rpm for 5 min and the supernatant removed. Pelleted cells were then lysed with 200 μl of 10% Zap-oglobin (Coulter Electronics, FL, USA). The lysing agent is a detergent containing solution that lyses the plasma membrane but leaves the nuclei intact. The lysed solution was collected and vortexed. A small volume (10 μl) of the solution was removed and intact nuclei were counted using a haemocytometer. To be counted, nuclei had to show a completely intact smooth outer border. Counts of intact nuclei were pooled for three or four experiments (a total of 15-20 wells were used for each treatment condition). each treatment condition).
OLs at 16 DIV were exposed to the different drug treatment conditions for 24 h, following which, the nuclear integrity assay was performed. On the day of the treatment, the cells growing in Nunc 24 well plates were washed twice with base media. Each treatment well received 50 μl of the appropriate drug solution and the total volume in the well was made up to 500 μl with either BM or IM.
Nuclear counts were obtained from quadruplicate wells per treatment condition and the experiment was repeated twice. OLs were exposed to the following treatment conditions: 1) IM, 2) BM, 3) BM-D9, 4) (−)-Desmethyldeprenyl (BM-Ds9), 5) IM-D9 and 6) IM +10^−9 M (−)-Desmethyldeprenyl (IM-Ds9).
The treatment conditions with the three general cytochrome P450 blockers were: 1) BM+Proadifen (2.5, 10, 25 μM), 2) BM-D9+Proadifen (2.5, 10, 25 μM), 3) BM-Ds9+Proadifen (2.5, 10, 25 μM), 4) BM+Metapyrone (50 μM), 5) BM-D9+Metapyrone (50 μM), 6) BM-Ds9+Metapyrone (50 μM), 7) BM+Piperonyl butoxide (100 μM), 5) BM-D9+Piperonyl butoxide (100 μM), 6) BM-Ds9+Piperonyl butoxide (100 μM).
OLs at 16 DIV were washed twice with base media and exposed either to actinomycin, a transcriptional blocker or cycloheximide, a translational blocker for 24 h. […] Actinomycin and cycloheximide were either used with base media alone or in combination with 10^−9 M (−)-desmethyldeprenyl. Each treatment well received 50 μl of the drug solution and the total volume of the well was made up to 500 μl with base media.
Counts of intact nuclei, obtained from quadruplicate wells per treatment condition were used to quantitate the effects of the transcriptional and translational blockers. Each experiment was repeated twice for experimental density series-II.

[1] = tested on: mitochondrial membrane potential (ΔψM) of oligodendroglial cells; assay: CMTMR estimation of mitochondrial membrane potential by confocal microscopy; assay type: cell-based, rat; conditions: BM + 10^−9 M, 18 h
Procedure: The ΔψM was assessed by the addition of a lipophilic, potentiometric dye, chloromethyl-tetramethylrhodamine methyl ester (CMTMR, Mitotracker Orange™ Molecular Probes, Eugene, Oreg.). The CMTMR dye reacts with the thiol groups on proteins and peptides to form aldehyde fixable conjugates. Entry of the negatively charged mitochondrial matrix compartment is proportional to the difference in the membrane potential. Therefore, the CMTMR fluorescence labels the mitochondrial membrane potential generated due to the negativity difference between the mitochondrial matrix and the outside of the mitochondria. Upon cell fixation, CMTMR remains in the mitochondria and is not washed out unlike other mitochondrial potentiometric dyes like rhodamine123.
Oligodendrocytes at 16 DIV were placed in trophically deprived BM for 18 h or treated with BM-D9 or BM-Ds9. […] The cells were incubated in CMTMR at 37° C. for 15 min. The cells were then fixed with 4% cold paraformaldehyde on ice for 30 min and washed twice with 0.1M PBS. Consequently, the coverslips were mounted on glass slides with Aquamount (Gurr, England).
Individual mitochondria labeled with CMTMR were resolved by confocal microscopy. A Leica true confocal scanning (TCS) 4D microscope coupled to an argon-krypton laser (Omnichrome, USA) was used for cell imaging. A pinhole size of 20 with an excitation filter wavelength of 568 nm and an emission filter wavelength of 590 nm was used to image the CMTMR labeled mitochondria. Each field of the coverslip was imaged using an oil-immersion, 100 X, 1.3 N.A. objective at 512 by 512 by 8 bits per pixel resolution, background offset of −1 and line averaged 32 times in bi-directional line scan mode. Care was taken not to exceed the dynamic range of the gray value display. The confocal images obtained were saved on an optical drive in a tagged image file format (TIFF).
Fluorescence intensity of individual mitochondria was measured using the Metamorph™ program. Metamorph™ compiles measurements of objects in a 8-bit image ranging from gray values 0 (background) and 255. In order to obtain fluorescence intensity measures, a rectangular region tool of 2×2 pixels was used to measure two randomly selected areas within each mitochondrion. A total of ten mitochondria obtained equally from all the regions of each cell were measured within each image. About 20 images were analyzed for each treatment condition thereby giving a sum of about 400 mitochondrial fluorescence intensity measures. The raw values were then further graphed and analyzed with the Microcal Origin 4.1 program. Frequency count was performed on the data, which classified the data in ordered bins. A frequency distribution was obtained with lower bin value set at 0 and higher bin value set at 260.

Structure (SMILES): C#CCN(C)[C@H](C)Cc1ccccc1 [(−)-deprenyl, R-(−)-N,α-Dimethyl-N-2-propynyl phenethylamine]
- increase in number of intact nuclei compared to BM (oligodendroglial cells; 24 h, experimental series-I): 217%
- increase in number of intact nuclei compared to BM (oligodendroglial cells; 24 h, experimental series-II (15.8×10^3 cell/mm^2)): 164%
- numbers of intact nuclei, % of those in IM (oligodendroglial cells; BM + 10^−9 M (BM-D9), 24 h, experimental series-I (5.3×10^3 cell/mm^2)): 119%
- increase in counts of intact nuclei compared to those for BM (oligodendroglial cells; BM + 10^−9 M, 24 h, metabolite experiments (FIG. 11)): 194%
- concentration-survival relationship, numbers of intact nuclei (oligodendroglial cells; BM with 10^−5, 10^−7 and 10^−9 M, 24 h): graded increase in the numbers of intact nuclei with the greatest increase for 10^−9 M
- number of intact nuclei compared to IM (oligodendroglial cells; 24 h, experimental series-I): 135.6%
- number of intact nuclei compared to IM (oligodendroglial cells; 24 h, experimental series-II): 102.4%
- Survival (24 h) (oligodendroglial cells; OL cell survival, relative to control (IM)): ++++
- mitochondrial CMTMR fluorescence distributions (ΔψM) in ASTs, PROLs and OLs [1]: not significantly different to those found for IM; also recorded: prevented the decrease in ΔψM
